Results published in US20140044656A1, “NOVEL USE” (DSM IP ASSETS B.V., priority 2011, published 2014).

Assays:
[1] = tested on: Normal human melanocytes NHM (HEMn-MP, Clonetics); assay: Quantification of melanin synthesis in cell culture; assay type: cell-based; details: for total melanin content versus control (100%): three days, absorbance at 405 nm
Method: Normal human melanocytes NHM (HEMn-MP, Clonetics) were seeded in 96 well cell culture plates and grown to sub-confluence for two days in a mixture of M2-Medium (Clonetics) and Medium (Promocell). Culture medium was exchanged with Culture Medium containing Steviol (96%) and melanogenesis progressed for another three days at 37° C. with another medium exchange on day two. Including cell layer and culture supernatant the total melanin was extracted using 1.7M KOH with vigorous shaking at RT. The total melanin content was determined at 405 nm in an absorbance plate reader versus a control (100%)

[2] = Discoloration experiment (Pantone Color Index of aqueous solution at different pH); assay type: physicochemical; details: for Pantone Index: 1% solution in water
Method: Steviol (87%) was dissolved at 1 wt.-% in water and the pH adjusted to different values as shown below. At pH 9, the solution turns brown within 1 day. However, the more acidic the pH, the less discoloration was observed. The color was determined visually using the Pantone Color Index. Pantone Colours index of 1% Steviol solution in water at different pH: […]

- Pantone Index ([2]; pH 6, visual): 155
- Pantone Index ([2]; pH 6.5, visual): 155
- Pantone Index ([2]; pH 7, visual): 158
- Pantone Index ([2]; pH 9, visual): 160
- time until solution turns brown ([2]; 1 wt.-% in water, pH 9): ≤ 1 days
SMILES: C=C1C[C@@]23CC[C@H]4[C@@](C)(CCC[C@@]4(C)C(=O)O)[C@@H]2CC[C@]1(O)C3 [Steviol, steviol]
- effect on the production of melanin in human melanocytes ([1]; 0.25-1 microM): clear dose dependent positive effect
- total melanin content versus control (100%) ([1]; 0.25 microM): 109%
- total melanin content versus control (100%) ([1]; 0.5 micro M): 124%
- total melanin content versus control (100%) ([1]; 1 micro M): 130%
- potency relative to the positive control Glycyrrhizin ([1]; melanin production in human melanocytes): about 1000 times
